Experimental data published in patent US8952024B2, “Herbicidal pyrimidone derivatives” (E I du Pont de Nemours and Company, priority 2009, dated 2015).

Assays:
Format in all cases: in vivo
[1] = test system: bermudagrass (Cynodon dactylon); assay: Test B pre-/postemergence plant response
In short: (§1)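 Steps: sow seed in loam–sand soil and spray preemergence, or grow plants in peat-based medium to 1–4 leaves (2–18 cm) and spray postemergence; formulation is non-phytotoxic solvent plus surfactant; hold in greenhouse 13–15 days; score visually vs controls, 0 = no effect, 100 = complete control.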

[2] = test system: blackgrass (Alopecurus myosuroides); assay: Test B pre-/postemergence plant response
In short: as §1

[3] = test system: cocklebur (Xanthium strumarium); assay: Test B pre-/postemergence plant response
In short: as §1

[4] = test system: corn (Zea mays); assay: Test B pre-/postemergence plant response
In short: as §1

[5] = test system: giant foxtail (Setaria faberii); assay: Test B pre-/postemergence plant response
In short: as §1

[6] = test system: johnsongrass (Sorghum halepense); assay: Test B pre-/postemergence plant response
In short: as §1

[7] = test system: kochia (Kochia scoparia); assay: Test B pre-/postemergence plant response
In short: as §1

[8] = test system: morningglory (Ipomoea coccinea); assay: Test B pre-/postemergence plant response
In short: as §1

[9] = test system: soybean (Glycine max); assay: Test B pre-/postemergence plant response
In short: as §1

[10] = test system: wild oat (Avena fatua); assay: Test B pre-/postemergence plant response
In short: as §1

[11] = test system: canarygrass (Phalaris minor); assay: Test B postemergence plant response
In short: (§2)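 Plants grown in peat/vermiculite medium were sprayed postemergence at 2–18 cm height (1- to 4-leaf stage). After 13–15 days in the greenhouse, response was rated visually against untreated controls on a 0–100 scale (0 no effect, 100 complete control).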

[12] = test system: chickweed (Stellaria media); assay: Test B postemergence plant response
In short: as §2

[13] = test system: windgrass (Apera spica-venti); assay: Test B postemergence plant response
In short: as §2

[14] = test system: winter barley (Hordeum vulgare); assay: Test B postemergence plant response
In short: as §2

[15] = 31 g ai/ha, postemergence, scale 0 to 100, 0 is no effect, 100 is complete control
[16] = 62 g ai/ha, postemergence, 0 is no effect, 100 is complete control, 13 to 15 days
[17] = Postemergence, 125 g ai/ha, visual rating after 13 to 15 days, scale 0 (no effect) to 100 (complete control)
[18] = Postemergence, 250 g ai/ha, scale 0 to 100 (0 no effect, 100 complete control)
[19] = Preemergence, 62 g ai/ha, scale 0 to 100 (0 no effect, 100 complete control)
[20] = Preemergence, 125 g ai/ha, scale 0 to 100, 0 no effect, 100 complete control
[21] = Preemergence, 31 g ai/ha, scale 0 to 100 (0 no effect, 100 complete control)
[22] = Preemergence, 250 g ai/ha, 0 to 100 scale

CCCc1ncc(C(=O)C2=C(O)CCCC2=O)c(=O)n1CC1CCCO1 (stereo not drawn) [Compound 74]
Plant response rating, Bermudagrass [1, 15]: 75
Bermudagrass plant response rating (0 to 100 scale) [1, 16]: 80
Plant response rating, Bermudagrass [1, 17]: 95
Plant response rating, Bermudagrass [1, 18]: 98
Plant response rating, Bermudagrass [1, 19]: 98
Plant response rating, Bermudagrass [1, 20]: 100
Bermudagrass plant response rating ([1]; Preemergence, 250 g ai/ha, 0 to 100 scale, 0 no effect, 100 complete control): 100
Plant response rating, Blackgrass [2, 15]: 0
Blackgrass plant response rating (0 to 100 scale) [2, 16]: 0
Plant response rating, Blackgrass [2, 17]: 25
Plant response rating, Blackgrass [2, 18]: 45
Plant response rating, Blackgrass [2, 21]: 0
Plant response rating, Blackgrass [2, 19]: 0
Plant response rating, Blackgrass [2, 20]: 0
Blackgrass plant response rating [2, 22]: 10
Plant response rating, Cocklebur [3, 15]: 20
Cocklebur plant response rating (0 to 100 scale) [3, 16]: 85
Plant response rating, Cocklebur [3, 17]: 90
Plant response rating, Cocklebur [3, 18]: 95
Plant response rating, Cocklebur [3, 21]: 10
Plant response rating, Cocklebur [3, 19]: 45
Plant response rating, Cocklebur [3, 20]: 70
Cocklebur plant response rating [3, 22]: 80
Plant response rating, Corn [4, 15]: 0
Corn plant response rating (0 to 100 scale) [4, 16]: 0
Plant response rating, Corn [4, 17]: 15
Plant response rating, Corn [4, 18]: 60
Plant response rating, Corn [4, 21]: 0
Plant response rating, Corn [4, 19]: 0
Plant response rating, Corn [4, 20]: 0
Corn plant response rating [4, 22]: 0
Plant response rating, Foxtail, Giant [5, 15]: 25
Foxtail, Giant plant response rating (0 to 100 scale) [5, 16]: 55
Plant response rating, Foxtail, Giant [5, 17]: 70
Plant response rating, Foxtail, Giant [5, 18]: 85
Plant response rating, Foxtail, Giant [5, 21]: 0
Plant response rating, Foxtail, Giant [5, 19]: 0
Plant response rating, Foxtail, Giant [5, 20]: 5
Foxtail, Giant plant response rating [5, 22]: 45
Plant response rating, Johnsongrass [6, 15]: 0
Johnsongrass plant response rating (0 to 100 scale) [6, 16]: 0
Plant response rating, Johnsongrass [6, 17]: 10
Plant response rating, Johnsongrass [6, 18]: 85
Plant response rating, Johnsongrass [6, 21]: 0
Plant response rating, Johnsongrass [6, 19]: 0
Plant response rating, Johnsongrass [6, 20]: 0
Johnsongrass plant response rating [6, 22]: 0
Plant response rating, Kochia [7, 15]: 75
Kochia plant response rating (0 to 100 scale) [7, 16]: 75
Plant response rating, Kochia [7, 17]: 95
Plant response rating, Kochia [7, 18]: 98
Plant response rating, Kochia [7, 21]: 80
Plant response rating, Kochia [7, 20]: 85
Kochia plant response rating [7, 22]: 85
Plant response rating, Morningglory [8, 15]: 60
Morningglory plant response rating (0 to 100 scale) [8, 16]: 85
Plant response rating, Morningglory [8, 17]: 95
Plant response rating, Morningglory [8, 18]: 100
Plant response rating, Morningglory [8, 21]: 10
Plant response rating, Morningglory [8, 19]: 60
Plant response rating, Morningglory [8, 20]: 75
Morningglory plant response rating [8, 22]: 80
Plant response rating, Soybean [9, 15]: 75
Soybean plant response rating (0 to 100 scale) [9, 16]: 75
Plant response rating, Soybean [9, 17]: 95
Plant response rating, Soybean [9, 18]: 95
Plant response rating, Oat, Wild [10, 15]: 20
Oat, Wild plant response rating (0 to 100 scale) [10, 16]: 20
Plant response rating, Oat, Wild [10, 17]: 60
Plant response rating, Oat, Wild [10, 18]: 80
Plant response rating, Oat, Wild [10, 21]: 0
Plant response rating, Oat, Wild [10, 19]: 0
Plant response rating, Oat, Wild [10, 20]: 5
Oat, Wild plant response rating [10, 22]: 5
Plant response rating, Canarygrass [11, 15]: 0
Canarygrass plant response rating (0 to 100 scale) [11, 16]: 0
Plant response rating, Canarygrass [11, 17]: 0
Plant response rating, Canarygrass [11, 18]: 0
Plant response rating, Chickweed [12, 15]: 75
Chickweed plant response rating (0 to 100 scale) [12, 16]: 85
Plant response rating, Chickweed [12, 17]: 95
Plant response rating, Chickweed [12, 18]: 100
Plant response rating, Windgrass [13, 15]: 5
Windgrass plant response rating (0 to 100 scale) [13, 16]: 60
Plant response rating, Windgrass [13, 17]: 80
Plant response rating, Windgrass [13, 18]: 95
Plant response rating, Barley [14, 15]: 0
Barley plant response rating (0 to 100 scale) [14, 16]: 0
Plant response rating, Barley [14, 17]: 0
Plant response rating, Barley [14, 18]: 0
